The target in one data set is T1, cellular TGF-β R1 ALK5 (Homo sapiens, UniProt P36897).
T1 construct: host or cells: CellSensor SBE-bla HEK 293T
T1 sequence (P36897 34-503): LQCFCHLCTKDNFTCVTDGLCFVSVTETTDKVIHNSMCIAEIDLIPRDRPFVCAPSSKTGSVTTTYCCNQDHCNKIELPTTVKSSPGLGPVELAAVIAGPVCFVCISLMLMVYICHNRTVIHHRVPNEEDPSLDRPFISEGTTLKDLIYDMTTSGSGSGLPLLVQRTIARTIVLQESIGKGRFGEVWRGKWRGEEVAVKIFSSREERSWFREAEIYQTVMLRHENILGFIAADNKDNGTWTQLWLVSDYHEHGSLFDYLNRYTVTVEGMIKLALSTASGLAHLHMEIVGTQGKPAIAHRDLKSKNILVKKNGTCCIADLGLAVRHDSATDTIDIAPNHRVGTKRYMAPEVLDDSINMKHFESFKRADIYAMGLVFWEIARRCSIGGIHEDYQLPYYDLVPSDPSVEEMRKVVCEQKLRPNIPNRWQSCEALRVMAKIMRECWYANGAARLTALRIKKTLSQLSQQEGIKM
Kind of data set: Cellular inhibition of ALK5 (CellSensor SBE-bla HEK 293T beta-lactamase reporter). The conditions noted are these: cellular inhibition of ALK5, SBE-bla HEK 293T cells, TGFb-1 stimulated 5 hours; average where measured in multiple experiments. Type of data set: cell-based. An outline of the steps:
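SBE-bla HEK 293T beta-lactamase reporter cells pre-incubated 1 h at 37 °C with 2.5-fold serially diluted compounds (0.5% DMSO), then stimulated 5 h with TGFb-1 (100 ng/mL stock).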

The target of another data set is T2, TGF-β R1 ALK5 (Homo sapiens, UniProt P36897).
T2 construct: purchased Invitrogen PV5837
T2 sequence (P36897 34-503): T1 sequence (P36897 34-503)
Put plainly: In vitro inhibition of ALK5 (LanthaScreen activity assay, TR-FRET). The format is biochemical. Background: In TR-FRET formats the signal depends on donor and acceptor labels being close together.

Each structure is given as a SMILES string. pIC50: −log10 of the molar value. Structures can show the parent of a compound that is named as a salt.

For orientation: pIC50 means the negative decadic logarithm of the IC50, by convention in mol/L. The low end stands for a large IC50, the high end for a small IC50. By melting point is commonly meant the temperature of the solid-liquid transition.

`Cc1ccc(F)c(-c2cc(Nc3ccnc4cn(C)nc34)c(C)cn2)n1` [Example 123, N-(3′-fluoro-5,6′-dimethyl-2,2′-bipyridin-4-yl)-2-methyl-2H-pyrazolo[4,3-b]pyridin-7-amine] returned a melting point of 102.9 to 103 °C. For the same molecule, the pIC50 against cellular TGF-β R1 ALK5 was 7.10. Moreover, the pIC50 at TGF-β R1 ALK5 is 7.60. For the molecule `Cc1cnc(-c2cc(Cl)ccc2F)cc1Nc1ccnc2cnn(C(=O)NC(C)C)c12` (as salt: TFA) [Example 54, 7-(2-(5-chloro-2-fluorophenyl)-5-methylpyridin-4-ylamino)-N-isopropyl-1H-pyrazolo[4,3-b]pyridine-1-carboxamide], the melting point came out at 292 °C.

In the case of `CCNC(=O)n1ncc2nccc(Nc3cc(C)nc(-c4cc(Cl)ccc4F)c3)c21` (as salt: TFA) [Example 59, 7-(2-(5-chloro-2-fluorophenyl)-6-methylpyridin-4-ylamino)-N-ethyl-1H-pyrazolo[4,3-b]pyridine-1-carboxamide], the melting point was found to be 245 °C.

For the molecule `NC(=O)Cn1ncc2nccc(Nc3ccnc(-c4cc(Cl)ccc4F)c3)c21` (as salt: TFA) [Example 44, 2-(7-(2-(5-chloro-2-fluorophenyl)pyridin-4-ylamino)-1H-pyrazolo[4,3-b]pyridin-1-yl)acetamide], the melting point was in the range of 131 to 132 °C. The same measure, in the same setting: as for `CN(C)C(=O)Cn1ncc2nccc(Nc3ccnc(-c4cc(Cl)ccc4F)c3)c21` (as salt: TFA) [Example 38, 2-(7-(2-(5-chloro-2-fluorophenyl)pyridin-4-ylamino)-1H-pyrazolo[4,3-b]pyridin-1-yl)-N,N-dimethylacetamide], the figure is 293 °C; as for `Cc1ccc(F)c(-c2cc(Nc3ccnc4cn(C[C@H](O)CO)nc34)ccn2)n1` (as salt: HCl) [Example 69, (S)-3-(7-(3′-fluoro-6′-methyl-2,2′-bipyridin-4-ylamino)-2H-pyrazolo[4,3-b]pyridin-2-yl)propane-1,2-diol], 182 to 184 °C; as for `CCNC(=O)n1ncc2nccc(Nc3ccnc(-c4cc(Cl)ccc4F)c3)c21` (as salt: TFA) [Example 29, 7-(2-(5-chloro-2-fluorophenyl)pyridin-4-ylamino)-N-ethyl-1H-pyrazolo[4,3-b]pyridine-1-carboxamide], 256 °C. The molecule `CNC(=O)n1ncc2nccc(Nc3cc(C)nc(-c4cc(Cl)ccc4F)c3)c21` (as salt: TFA) [Example 58, 7-(2-(5-chloro-2-fluorophenyl)-6-methylpyridin-4-ylamino)-N-methyl-1H-pyrazolo[4,3-b]pyridine-1-carboxamide] displayed a melting point of 248 °C. On the same count and under the same terms, the value for `Cc1ccc(F)c(-c2cc(Nc3ccnc4cnn(CC(C)(C)O)c34)ccn2)n1` (as salt: TFA) [Example 70, 1-(7-(3′-fluoro-6′-methyl-2,2′-bipyridin-4-ylamino)-1H-pyrazolo[4,3-b]pyridin-1-yl)-2-methylpropan-2-ol] was 135 to 136 °C. The same measure, in the same setting: as for `CNC(=O)n1ncc2nccc(Nc3ccnc(-c4cc(Cl)ccc4F)c3)c21` (as salt: TFA) [Example 32, 7-(2-(5-chloro-2-fluorophenyl)pyridin-4-ylamino)-N-methyl-1H-pyrazolo[4,3-b]pyridine-1-carboxamide], the figure is 256 °C.

Regarding `Cc1ccc(F)c(-c2cc(Nc3ccnc4cnn([C@@H]5CCOC5)c34)c(C)cn2)n1` [Example 137, (R)—N-(3′-fluoro-5,6′-dimethyl-2,2′-bipyridin-4-yl)-1-(tetrahydrofuran-3-yl)-1H-pyrazolo[4,3-b]pyridin-7-amine], the pIC50 against cellular TGF-β R1 ALK5 is 7.10; on TGF-β R1 ALK5, 7.70. On the same counts, the results for `Cc1ccc(F)c(-c2cc(Nc3ccnc4cn([C@H]5CCOC5)nc34)c(C)cn2)n1` [Example 140, (S)—N-(3′-fluoro-5,6′-dimethyl-2,2′-bipyridin-4-yl)-2-(tetrahydrofuran-3-yl)-2H-pyrazolo[4,3-b]pyridin-7-amine] are 7.30 and 8.10. On the same counts, the results for `CCn1ncc2nccc(Nc3ccnc(-c4nc(C)ccc4F)c3)c21` [Example 127, 1-ethyl-N-(3′-fluoro-6′-methyl-2,2′-bipyridin-4-yl)-1H-pyrazolo[4,3-b]pyridin-7-amine] are 7.50 and 8.10. For the molecule `Cc1ccc(F)c(-c2cc(Nc3c(F)cnc4cnn(C)c34)c(C)cn2)n1` [Example 132, 6-fluoro-N-(3′-fluoro-5,6′-dimethyl-2,2′-bipyridin-4-yl)-1-methyl-1H-pyrazolo[4,3-b]pyridin-7-amine], the negative-log IC50 (pIC50) was 6.90 against cellular TGF-β R1 ALK5 and 7.20 on TGF-β R1 ALK5. On the same counts, the results for `Cc1ccc(F)c(-c2cc(Nc3c(F)cnc4cn(CC(C)(C)O)nc34)c(C)cn2)n1` [Example 99, 1-(6-fluoro-7-(3′-fluoro-5,6′-dimethyl-2,2′-bipyridin-4-ylamino)-2H-pyrazolo[4,3-b]pyridin-2-yl)-2-methylpropan-2-ol] are 5.90 and 6.30. Regarding `Cc1ccc(F)c(-c2cc(Nc3ccnc4cn(C5CC5)nc34)c(C)cn2)n1` [Example 122, 2-cyclopropyl-N-(3′-fluoro-5,6′-dimethyl-2,2′-bipyridin-4-yl)-2H-pyrazolo[4,3-b]pyridin-7-amine], the pIC50 is 8.00 against cellular TGF-β R1 ALK5 and 8.70 against TGF-β R1 ALK5. With `CNC(=O)n1ncc2nccc(Nc3cc(-c4cc(Cl)ccc4F)ncc3C)c21` (as salt: TFA) [Example 52, 7-(2-(5-chloro-2-fluorophenyl)-5-methylpyridin-4-ylamino)-N-methyl-1H-pyrazolo[4,3-b]pyridine-1-carboxamide], the melting point came to 135 °C. For `Fc1ccc(Cl)cc1-c1cc(Nc2ccnc3cnn(CC4CC4)c23)ccn1` [Example 36, N-(2-(5-chloro-2-fluorophenyl)pyridin-4-yl)-1-(cyclopropylmethyl)-1H-pyrazolo[4,3-b]pyridin-7-amine], the pIC50 against cellular TGF-β R1 ALK5 and against TGF-β R1 ALK5 was 6.20 each time.

For the origin of these results see patent publication US9073918B2, “Pyrazolo[4,3-b]pyridine-7-amine inhibitors of ALK5” (Takeda Pharmaceutical Company Limited, priority 2010, dated 2015).
